Experimental data: US8664201B2 (priority 2008, dated 2014)
Several values for one entry are separate records, joined by “and”; a condition that tells them apart may be missing. Equal values may be shown once. Read-outs that look alike come from different tables or passages of the source.

Assays:
L1210/CPA = assay type: in vivo, mice
16/C Mammary Tumor = assay type: in vivo, mice
Lewis Lung Carcinoma = system: Lewis Lung Carcinoma; design: species or system mice; conditions: mouse, in vivo
B16 Melanoma = system: B16 Melanoma; design: species or system mice; conditions: mouse, in vivo
L1210/0 = assay type: in vivo, mice
P388/CPA = assay type: in vivo, mice
P388/0 = assay type: in vivo, mice
human lox-IMVI melanoma = assay type: in vivo, mice; conditions: 40 mg/kg/dose IV, Q1DX5
[1] = system: human MX-1 mammary tumors; assay type: in vivo, mice; conditions: 60 mg/kg IP, Q 1dx 5 day 12

O=P1(NCCCl)OCCCN1CCCl (stereo not shown) [Ifosfamide, ifosfamide]
Day 60 survivors/total (L1210/CPA; mouse, in vivo): 0/10 | Days to 2 Doublings (16/C Mammary Tumor; mouse, in vivo): 4.6 days and 4.9 days and 3.8 days and 4.0 days | % ILS (Lewis Lung Carcinoma): 55% | Log kill total (Lewis Lung Carcinoma): >4.5 | T-C (tumor growth delay) (Lewis Lung Carcinoma): 18 days | Tumor-free survivors (Lewis Lung Carcinoma): 7/10 | % ILS (B16 Melanoma): 55% | T-C (B16 Melanoma): 18 days | Tumor-free survivors (B16 Melanoma): 7/10 | Day 60 survivors/total (L1210/0; mouse, in vivo): 0/10 and 0/9 | Net log10 reduction in tumor burden after therapy (L1210/0; mouse, in vivo): 8 | Day 60 survivors/total (P388/CPA; mouse, in vivo): 0/10 | Net log10 reduction in tumor burden after therapy (P388/CPA; mouse, in vivo): 4 | Day 60 survivors/total (P388/0; mouse, in vivo): 7/10 | Net log10 reduction in tumor burden after therapy (P388/0; mouse, in vivo): 7

O=P1(N(CCCl)CCCl)NCCCO1 (stereo not shown) [Cyclophosphamide, cyclophosphamide]
% ILS (human lox-IMVI melanoma): +121% | Median Day of Death (human lox-IMVI melanoma): 42.0 | % ILS (dying mice only) (L1210/CPA; 200 mg/kg IP, day 2 only): +57% | Day 60 survivors/total (L1210/CPA; 200 mg/kg IP, day 2 only): 0/10 | Net log10 reduction in tumor burden after therapy (L1210/CPA; 200 mg/kg IP, day 2 only): 4 | Days Delay (T-C) [1]: >40.5 days | Days to 2 Doublings [1]: >48.0 days | Days Delay (T-C) (16/C Mammary Tumor; 30 mg/kg IP, Q 1dx 4 day 7): 0.4 days | Days to 2 Doublings (16/C Mammary Tumor; 30 mg/kg IP, Q 1dx 4 day 7): 3.6 days | Days Delay (T-C) (16/C Mammary Tumor; 40 mg/kg IP, Q 1dx 4 day 7): 1.2 days | Days to 2 Doublings (16/C Mammary Tumor; 40 mg/kg IP, Q 1dx 4 day 7): 4.4 days | Days Delay (T-C) (16/C Mammary Tumor; 50 mg/kg IP, Q 1dx 4 day 7): 4.0 days | Days to 2 Doublings (16/C Mammary Tumor; 50 mg/kg IP, Q 1dx 4 day 7): 7.2 days | Days Delay (T-C) (16/C Mammary Tumor; 60 mg/kg IP, Q 1dx 4 day 7): 4.5 days | Days to 2 Doublings (16/C Mammary Tumor; 60 mg/kg IP, Q 1dx 4 day 7): 7.7 days | % ILS (Lewis Lung Carcinoma): 68% | Log kill total (Lewis Lung Carcinoma): >6.8 | T-C (tumor growth delay) (Lewis Lung Carcinoma): 27 days | Tumor-free survivors (Lewis Lung Carcinoma): 5/10 | % ILS (B16 Melanoma): 68% | T-C (B16 Melanoma): 27 days | Tumor-free survivors (B16 Melanoma): 5/10 | % ILS (dying mice only) (L1210/0; 200 mg/kg IP, day 2 only): +107% | Day 60 survivors/total (L1210/0; 200 mg/kg IP, day 2 only): 0/10 | Net log10 reduction in tumor burden after therapy (L1210/0; 200 mg/kg IP, day 2 only): 7 | % ILS (dying mice only) (P388/CPA; 175 mg/kg IP, day 1 only): +35% | Day 60 survivors/total (P388/CPA; 175 mg/kg IP, day 1 only): 0/10 | Net log10 reduction in tumor burden after therapy (P388/CPA; 175 mg/kg IP, day 1 only): 3 | % ILS (dying mice only) (P388/CPA; 265 mg/kg IP, day 1 only): +35% | Day 60 survivors/total (P388/CPA; 265 mg/kg IP, day 1 only): 0/10 | Net log10 reduction in tumor burden after therapy (P388/CPA; 265 mg/kg IP, day 1 only): 3 | % ILS (dying mice only) (P388/0; 175 mg/kg IP, day 1 only): +130% | Day 60 survivors/total (P388/0; 175 mg/kg IP, day 1 only): 4/10 | Net log10 reduction in tumor burden after therapy (P388/0; 175 mg/kg IP, day 1 only): 7 | % ILS (dying mice only) (P388/0; 265 mg/kg IP, day 1 only): +280% | Day 60 survivors/total (P388/0; 265 mg/kg IP, day 1 only): 7/10 | Net log10 reduction in tumor burden after therapy (P388/0; 265 mg/kg IP, day 1 only): 7
